Patent US9340590B2 (priority 2011, dated 2016)
Read-outs that look alike come from different tables or passages of the source. Positions of bridges follow the written chain, without caps; N, C: chain ends. Residues, ends and D or L forms follow the SMILES beside them.

Experiments:
hNav1.7 = hNav1.7 (Homo sapiens, UniProt Q15858); test: cell-based; assay type: cell-based; settings: read-out: IWQ Use Nav1.7
hNav1.3 = hNav1.3 (Homo sapiens, UniProt Q9NY46); test: cell-based; settings: IonWorks Quattro, use-dependent block, hNav1.3; read-out: IWQ Use Nav1.3
hNav1.3, sequence (Q9NY46 whole entry, looked up): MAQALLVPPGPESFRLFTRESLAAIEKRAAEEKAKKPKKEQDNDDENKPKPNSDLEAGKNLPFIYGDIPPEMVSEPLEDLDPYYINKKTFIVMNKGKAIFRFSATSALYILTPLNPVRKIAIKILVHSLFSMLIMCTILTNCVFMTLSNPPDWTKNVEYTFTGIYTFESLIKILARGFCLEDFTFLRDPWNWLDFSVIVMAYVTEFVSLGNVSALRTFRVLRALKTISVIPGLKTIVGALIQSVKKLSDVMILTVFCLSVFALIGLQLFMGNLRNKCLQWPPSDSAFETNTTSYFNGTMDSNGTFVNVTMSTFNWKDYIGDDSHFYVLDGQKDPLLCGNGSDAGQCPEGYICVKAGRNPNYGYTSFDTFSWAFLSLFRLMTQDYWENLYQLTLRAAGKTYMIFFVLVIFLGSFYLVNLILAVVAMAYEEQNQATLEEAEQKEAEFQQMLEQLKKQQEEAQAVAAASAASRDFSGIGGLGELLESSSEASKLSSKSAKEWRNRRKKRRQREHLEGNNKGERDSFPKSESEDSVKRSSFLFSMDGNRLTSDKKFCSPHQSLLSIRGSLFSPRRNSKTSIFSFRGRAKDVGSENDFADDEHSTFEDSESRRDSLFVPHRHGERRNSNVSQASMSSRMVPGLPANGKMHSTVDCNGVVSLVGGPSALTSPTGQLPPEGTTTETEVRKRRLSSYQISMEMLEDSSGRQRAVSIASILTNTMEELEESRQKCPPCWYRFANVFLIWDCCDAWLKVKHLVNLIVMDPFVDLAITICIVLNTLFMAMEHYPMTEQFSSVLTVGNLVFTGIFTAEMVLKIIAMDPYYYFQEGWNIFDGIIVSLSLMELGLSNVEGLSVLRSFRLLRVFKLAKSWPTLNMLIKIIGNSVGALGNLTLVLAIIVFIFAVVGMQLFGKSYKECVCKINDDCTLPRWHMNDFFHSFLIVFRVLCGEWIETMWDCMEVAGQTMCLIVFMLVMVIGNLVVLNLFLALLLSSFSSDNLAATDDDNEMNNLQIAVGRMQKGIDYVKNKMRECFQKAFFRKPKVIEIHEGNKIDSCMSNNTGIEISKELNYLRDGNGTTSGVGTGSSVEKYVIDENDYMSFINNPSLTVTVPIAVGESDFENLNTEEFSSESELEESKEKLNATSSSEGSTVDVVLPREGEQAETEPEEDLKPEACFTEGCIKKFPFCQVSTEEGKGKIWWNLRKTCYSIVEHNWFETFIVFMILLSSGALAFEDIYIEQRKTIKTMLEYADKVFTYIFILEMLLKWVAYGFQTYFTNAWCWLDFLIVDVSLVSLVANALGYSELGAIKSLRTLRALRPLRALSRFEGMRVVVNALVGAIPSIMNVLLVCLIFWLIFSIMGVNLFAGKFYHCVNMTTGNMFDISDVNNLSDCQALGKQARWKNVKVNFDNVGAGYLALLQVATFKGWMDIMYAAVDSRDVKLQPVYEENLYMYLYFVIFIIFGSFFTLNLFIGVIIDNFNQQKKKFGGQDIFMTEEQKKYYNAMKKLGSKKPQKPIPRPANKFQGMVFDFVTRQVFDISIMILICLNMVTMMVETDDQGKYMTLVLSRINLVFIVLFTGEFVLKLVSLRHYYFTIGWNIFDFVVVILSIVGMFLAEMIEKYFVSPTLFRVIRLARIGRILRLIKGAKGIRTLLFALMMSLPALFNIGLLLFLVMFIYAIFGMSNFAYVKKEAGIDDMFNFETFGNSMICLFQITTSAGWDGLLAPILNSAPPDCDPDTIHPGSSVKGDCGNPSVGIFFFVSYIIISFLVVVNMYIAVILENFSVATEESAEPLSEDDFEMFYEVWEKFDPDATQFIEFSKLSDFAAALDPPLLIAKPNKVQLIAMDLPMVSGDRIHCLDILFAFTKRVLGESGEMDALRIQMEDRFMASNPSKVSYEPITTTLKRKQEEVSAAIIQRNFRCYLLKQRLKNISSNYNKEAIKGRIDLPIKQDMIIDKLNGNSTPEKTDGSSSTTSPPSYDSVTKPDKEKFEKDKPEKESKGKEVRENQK

[1] = IonWorks Quattro, clamped to −110 mV, depolarized to −10 mV, 5 min after compound, n=2

hNav1.7, sequence (Q15858 whole entry, looked up): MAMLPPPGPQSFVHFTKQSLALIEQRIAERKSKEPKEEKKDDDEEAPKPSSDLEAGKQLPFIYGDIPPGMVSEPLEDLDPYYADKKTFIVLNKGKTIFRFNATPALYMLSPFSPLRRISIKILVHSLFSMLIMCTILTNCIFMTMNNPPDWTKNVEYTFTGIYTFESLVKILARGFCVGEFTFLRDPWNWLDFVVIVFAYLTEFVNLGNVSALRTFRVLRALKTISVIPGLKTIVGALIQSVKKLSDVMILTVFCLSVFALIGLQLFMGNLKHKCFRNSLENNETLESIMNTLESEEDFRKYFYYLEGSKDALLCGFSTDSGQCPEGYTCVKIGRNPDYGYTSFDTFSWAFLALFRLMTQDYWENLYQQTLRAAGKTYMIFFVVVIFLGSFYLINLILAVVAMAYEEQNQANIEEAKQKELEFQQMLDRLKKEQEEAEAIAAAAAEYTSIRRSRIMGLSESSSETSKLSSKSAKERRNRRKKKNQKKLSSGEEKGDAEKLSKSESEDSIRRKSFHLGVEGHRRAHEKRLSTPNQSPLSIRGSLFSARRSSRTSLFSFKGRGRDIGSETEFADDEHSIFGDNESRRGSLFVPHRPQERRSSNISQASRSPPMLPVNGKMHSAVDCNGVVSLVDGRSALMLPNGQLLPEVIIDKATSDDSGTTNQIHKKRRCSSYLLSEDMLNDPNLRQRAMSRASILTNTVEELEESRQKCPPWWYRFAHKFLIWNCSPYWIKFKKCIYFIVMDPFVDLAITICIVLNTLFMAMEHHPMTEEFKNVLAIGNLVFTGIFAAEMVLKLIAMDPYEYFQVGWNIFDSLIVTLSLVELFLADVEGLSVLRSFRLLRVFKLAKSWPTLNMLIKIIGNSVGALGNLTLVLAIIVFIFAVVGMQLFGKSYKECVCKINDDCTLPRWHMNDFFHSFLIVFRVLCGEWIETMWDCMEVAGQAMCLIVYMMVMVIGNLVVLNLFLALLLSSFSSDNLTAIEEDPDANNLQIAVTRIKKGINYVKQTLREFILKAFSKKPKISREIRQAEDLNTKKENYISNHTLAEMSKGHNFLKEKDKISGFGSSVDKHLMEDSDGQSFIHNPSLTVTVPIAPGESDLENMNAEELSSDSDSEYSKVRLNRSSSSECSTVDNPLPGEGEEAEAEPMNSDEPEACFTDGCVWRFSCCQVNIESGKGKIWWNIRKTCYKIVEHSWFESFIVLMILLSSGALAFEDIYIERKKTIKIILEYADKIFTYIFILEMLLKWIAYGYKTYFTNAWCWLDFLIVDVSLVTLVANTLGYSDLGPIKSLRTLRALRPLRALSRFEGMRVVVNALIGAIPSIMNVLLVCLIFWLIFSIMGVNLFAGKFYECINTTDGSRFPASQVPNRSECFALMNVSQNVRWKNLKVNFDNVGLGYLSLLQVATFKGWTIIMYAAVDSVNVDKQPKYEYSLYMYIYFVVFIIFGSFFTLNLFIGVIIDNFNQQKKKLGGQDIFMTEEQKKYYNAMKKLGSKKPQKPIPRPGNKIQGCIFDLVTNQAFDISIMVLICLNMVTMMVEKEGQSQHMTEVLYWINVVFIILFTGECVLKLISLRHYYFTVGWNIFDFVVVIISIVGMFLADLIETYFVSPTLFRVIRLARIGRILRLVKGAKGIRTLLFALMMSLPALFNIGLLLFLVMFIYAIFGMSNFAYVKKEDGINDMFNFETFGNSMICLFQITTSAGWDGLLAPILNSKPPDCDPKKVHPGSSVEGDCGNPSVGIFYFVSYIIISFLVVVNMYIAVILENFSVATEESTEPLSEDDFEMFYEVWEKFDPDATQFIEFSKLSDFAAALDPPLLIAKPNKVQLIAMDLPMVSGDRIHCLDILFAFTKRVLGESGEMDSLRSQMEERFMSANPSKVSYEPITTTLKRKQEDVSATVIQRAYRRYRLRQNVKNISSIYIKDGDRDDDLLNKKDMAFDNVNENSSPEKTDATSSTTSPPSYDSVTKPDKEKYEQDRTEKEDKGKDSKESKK

CC[C@H](C)[C@@H]1NC(=O)[C@@H]2CSSC[C@@H]3NC(=O)[C@H](C(C)C)NC(=O)[C@H](CC(C)C)NC(=O)[C@H](CC(N)=O)NC(=O)[C@@H]4CCCN4C(=O)[C@H](CCCNC(=N)N)NC(=O)[C@H](CSSC[C@H](NC(=O)[C@@H](N)CCC(=O)O)C(=O)N[C@@H](CC(C)C)C(=O)NCC(=O)N[C@@H](Cc4ccccc4)C(=O)N[C@@H](CCSC)C(=O)N[C@@H](CCCNC(=N)N)C(=O)N[C@@H](CCCCN)C(=O)N2)NC(=O)[C@H](CSSC[C@@H](C(=O)N[C@@H](CCCCN)C(=O)N[C@@H](Cc2ccc(O)cc2)C(=O)N[C@H](C(=O)N[C@@H](Cc2ccccc2)C(N)=O)C(C)C)NC(=O)[C@H](Cc2c[nH]c4ccccc24)NC(=O)[C@H](CCCCN)NC(=O)[C@H](Cc2c[nH]cn2)NC(=O)[C@H]([C@@H](C)O)NC(=O)[C@H](CCCNC(=N)N)NC(=O)[C@H](CO)NC3=O)NC(=O)[C@H](CCCCN)NC(=O)[C@H](CC(=O)O)NC(=O)[C@H](CC(N)=O)NC(=O)[C@H](CC(=O)O)NC(=O)[C@@H]2CCCN2C1=O [SEQ ID NO: 18] (H-ECLGFMRKCIPDNDKCCRPNLVCSRTHKWCKYVF-NH2; disulfide 2-17, 9-23, 16-30)
IC50 (hNav1.7; [1]): 0.22 µM

CC[C@H](C)[C@@H]1NC(=O)[C@@H]2CSSC[C@@H]3NC(=O)[C@H](C(C)C)NC(=O)[C@H](CC(C)C)NC(=O)[C@H](CC(N)=O)NC(=O)[C@@H]4CCCN4C(=O)[C@H](CCCNC(=N)N)NC(=O)[C@H](CSSC[C@H](NC(=O)[C@@H](N)CC(=O)O)C(=O)N[C@@H](CCC(=O)O)C(=O)NCC(=O)N[C@@H](Cc4ccccc4)C(=O)N[C@@H](CCSC)C(=O)N[C@@H](CCCNC(=N)N)C(=O)N[C@@H](CCCCN)C(=O)N2)NC(=O)[C@H](CSSC[C@@H](C(=O)N[C@@H](CCCCN)C(=O)N[C@@H](Cc2ccc(O)cc2)C(=O)N[C@H](C(=O)N[C@@H](Cc2ccccc2)C(N)=O)C(C)C)NC(=O)[C@H](Cc2c[nH]c4ccccc24)NC(=O)[C@H](CCCCN)NC(=O)[C@H](Cc2c[nH]cn2)NC(=O)[C@H]([C@@H](C)O)NC(=O)[C@H](CCCNC(=N)N)NC(=O)[C@H](CO)NC3=O)NC(=O)[C@H](CCCCN)NC(=O)[C@H](CC(=O)O)NC(=O)[C@H](CC(N)=O)NC(=O)[C@H](CC(=O)O)NC(=O)[C@@H]2CCCN2C1=O [SEQ ID NO: 19] (H-DCEGFMRKCIPDNDKCCRPNLVCSRTHKWCKYVF-NH2; disulfide 2-17, 9-23, 16-30)
IC50 (hNav1.7; [1]): 0.67 µM

CC[C@H](C)[C@@H]1NC(=O)[C@@H]2CSSC[C@@H]3NC(=O)[C@H](C(C)C)NC(=O)[C@H](CC(C)C)NC(=O)[C@H](CC(N)=O)NC(=O)[C@@H]4CCCN4C(=O)[C@H](CCCNC(=N)N)NC(=O)[C@H](CSSC[C@H](NC(=O)[C@H](C)N)C(=O)N[C@@H](CC(C)C)C(=O)NCC(=O)N[C@@H](Cc4ccccc4)C(=O)N[C@@H](CCSC)C(=O)N[C@@H](CCCNC(=N)N)C(=O)N[C@@H](CCCCN)C(=O)N2)NC(=O)[C@H](CSSC[C@@H](C(=O)N[C@@H](CCCCN)C(=O)N[C@@H](Cc2ccc(O)cc2)C(=O)N[C@H](C(=O)N[C@@H](Cc2ccccc2)C(N)=O)C(C)C)NC(=O)[C@H](Cc2c[nH]c4ccccc24)NC(=O)[C@H](CCCCN)NC(=O)[C@H](Cc2c[nH]cn2)NC(=O)[C@H]([C@@H](C)O)NC(=O)[C@H](CCCNC(=N)N)NC(=O)[C@H](CO)NC3=O)NC(=O)[C@H](CCCCN)NC(=O)[C@H](CC(=O)O)NC(=O)[C@H](CC(N)=O)NC(=O)[C@H](CC(=O)O)NC(=O)[C@@H]2CCCN2C1=O [SEQ ID NO: 20] (H-ACLGFMRKCIPDNDKCCRPNLVCSRTHKWCKYVF-NH2; disulfide 2-17, 9-23, 16-30)
IC50 (hNav1.7; [1]): 0.1 µM

CC[C@H](C)[C@@H]1NC(=O)[C@@H]2CSSC[C@@H]3NC(=O)[C@H](C(C)C)NC(=O)[C@H](CC(C)C)NC(=O)[C@H](CC(N)=O)NC(=O)[C@@H]4CCCN4C(=O)[C@H](CCCNC(=N)N)NC(=O)[C@H](CSSC[C@H](NC(=O)[C@@H](N)CC(=O)O)C(=O)N[C@@H](CC(C)C)C(=O)N[C@@H](CCC(=O)O)C(=O)N[C@@H](Cc4ccccc4)C(=O)N[C@@H](CCSC)C(=O)N[C@@H](CCCNC(=N)N)C(=O)N[C@@H](CCCCN)C(=O)N2)NC(=O)[C@H](CSSC[C@@H](C(=O)N[C@@H](CCCCN)C(=O)N[C@@H](Cc2ccc(O)cc2)C(=O)N[C@H](C(=O)N[C@@H](Cc2ccccc2)C(N)=O)C(C)C)NC(=O)[C@H](Cc2c[nH]c4ccccc24)NC(=O)[C@H](CCCCN)NC(=O)[C@H](Cc2c[nH]cn2)NC(=O)[C@H]([C@@H](C)O)NC(=O)[C@H](CCCNC(=N)N)NC(=O)[C@H](CO)NC3=O)NC(=O)[C@H](CCCCN)NC(=O)[C@H](CC(=O)O)NC(=O)[C@H](CC(N)=O)NC(=O)[C@H](CC(=O)O)NC(=O)[C@@H]2CCCN2C1=O [SEQ ID NO: 24] (H-DCLEFMRKCIPDNDKCCRPNLVCSRTHKWCKYVF-NH2; disulfide 2-17, 9-23, 16-30)
IC50 (hNav1.7; [1]): 1.74 µM

CC[C@H](C)[C@@H]1NC(=O)[C@@H]2CSSC[C@@H]3NC(=O)[C@H](C(C)C)NC(=O)[C@H](CC(C)C)NC(=O)[C@H](CC(N)=O)NC(=O)[C@@H]4CCCN4C(=O)[C@H](CCCNC(=N)N)NC(=O)[C@H](CSSC[C@H](NC(=O)[C@@H](N)CC(=O)O)C(=O)N[C@@H](CC(C)C)C(=O)NCC(=O)N[C@@H](Cc4ccccc4)C(=O)N[C@@H](CCSC)C(=O)N[C@@H](CCCNC(=N)N)C(=O)N[C@@H](CCCCN)C(=O)N2)NC(=O)[C@H](CSSC[C@@H](C(=O)N[C@@H](CCCCN)C(=O)N[C@@H](Cc2ccc(O)cc2)C(=O)N[C@@H](CCC(=O)O)C(=O)N[C@@H](Cc2ccccc2)C(N)=O)NC(=O)[C@H](Cc2c[nH]c4ccccc24)NC(=O)[C@H](CCCCN)NC(=O)[C@H](Cc2c[nH]cn2)NC(=O)[C@H]([C@@H](C)O)NC(=O)[C@H](CCCNC(=N)N)NC(=O)[C@H](CO)NC3=O)NC(=O)[C@H](CCCCN)NC(=O)[C@H](CC(=O)O)NC(=O)[C@H](CC(N)=O)NC(=O)[C@H](CC(=O)O)NC(=O)[C@@H]2CCCN2C1=O [SEQ ID NO: 33, [Glu33]GpTx-1] (H-DCLGFMRKCIPDNDKCCRPNLVCSRTHKWCKYEF-NH2; disulfide 2-17, 9-23, 16-30)
IC50 (hNav1.7): 0.56 µM

CC[C@H](C)[C@@H]1NC(=O)[C@@H]2CSSC[C@@H]3NC(=O)[C@H](C(C)C)NC(=O)[C@H](CC(C)C)NC(=O)[C@H](CC(N)=O)NC(=O)[C@@H]4CCCN4C(=O)[C@H](CCCNC(=N)N)NC(=O)[C@H](CSSC[C@H](NC(=O)[C@@H](N)CCCCN)C(=O)N[C@@H](CC(C)C)C(=O)NCC(=O)N[C@@H](Cc4ccccc4)C(=O)N[C@@H](CCSC)C(=O)N[C@@H](CCCNC(=N)N)C(=O)N[C@@H](CCCCN)C(=O)N2)NC(=O)[C@H](CSSC[C@@H](C(=O)N[C@@H](CCCCN)C(=O)N[C@@H](Cc2ccc(O)cc2)C(=O)N[C@H](C(=O)N[C@@H](Cc2ccccc2)C(N)=O)C(C)C)NC(=O)[C@H](Cc2c[nH]c4ccccc24)NC(=O)[C@H](CCCCN)NC(=O)[C@H](Cc2c[nH]cn2)NC(=O)[C@H]([C@@H](C)O)NC(=O)[C@H](CCCNC(=N)N)NC(=O)[C@H](CO)NC3=O)NC(=O)[C@H](CCCCN)NC(=O)[C@H](CC(=O)O)NC(=O)[C@H](CC(N)=O)NC(=O)[C@H](CC(=O)O)NC(=O)[C@@H]2CCCN2C1=O [SEQ ID NO: 37] (H-KCLGFMRKCIPDNDKCCRPNLVCSRTHKWCKYVF-NH2; disulfide 2-17, 9-23, 16-30)
IC50 (hNav1.7; [1]): 0.15 µM

CC[C@H](C)[C@@H]1NC(=O)[C@@H]2CSSC[C@@H]3NC(=O)[C@H](C(C)C)NC(=O)[C@H](CC(C)C)NC(=O)[C@H](CC(N)=O)NC(=O)[C@@H]4CCCN4C(=O)[C@H](CCCNC(=N)N)NC(=O)[C@H](CSSC[C@H](NC(=O)[C@@H](N)CC(=O)O)C(=O)N[C@@H](CC(C)C)C(=O)NCC(=O)N[C@@H](C)C(=O)N[C@@H](Cc4ccccc4)C(=O)N[C@@H](CCCNC(=N)N)C(=O)N[C@@H](CCCCN)C(=O)N2)NC(=O)[C@H](CSSC[C@@H](C(=O)N[C@@H](CCCCN)C(=O)N[C@@H](Cc2ccc(O)cc2)C(=O)N[C@H](C(=O)N[C@@H](Cc2ccccc2)C(N)=O)C(C)C)NC(=O)[C@H](Cc2c[nH]c4ccccc24)NC(=O)[C@H](CCCNC(=N)N)NC(=O)[C@H](Cc2cnc[nH]2)NC(=O)[C@H]([C@@H](C)O)NC(=O)[C@H](CCCNC(=N)N)NC(=O)[C@H](CO)NC3=O)NC(=O)[C@H](CCCCN)NC(=O)[C@H](CC(=O)O)NC(=O)[C@H](CC(N)=O)NC(=O)[C@H](CC(=O)O)NC(=O)[C@@H]2CCCN2C1=O [compound 809] (H-DCLGAFRKCIPDNDKCCRPNLVCSRTHRWCKYVF-NH2; disulfide 2-17, 9-23, 16-30)
IC50 (hNav1.3): 0.3 µM

CC[C@H](C)[C@@H]1NC(=O)[C@@H]2CSSC[C@@H]3NC(=O)[C@H](C(C)C)NC(=O)[C@H](CC(C)C)NC(=O)[C@H](CC(N)=O)NC(=O)[C@@H]4CCCN4C(=O)[C@H](CCCNC(=N)N)NC(=O)[C@H](CSSC[C@H](NC(=O)[C@@H](N)CC(=O)O)C(=O)N[C@@H](CC(C)C)C(=O)NCC(=O)N[C@@H](C)C(=O)N[C@@H](CC(C)C)C(=O)N[C@@H](CCCNC(=N)N)C(=O)N[C@@H](CCCCN)C(=O)N2)NC(=O)[C@H](CSSC[C@@H](C(=O)N[C@@H](CCCCN)C(=O)N[C@@H](Cc2ccc(O)cc2)C(=O)N[C@H](C(=O)N[C@@H](Cc2ccccc2)C(N)=O)C(C)C)NC(=O)[C@H](Cc2c[nH]c4ccccc24)NC(=O)[C@H](CCCNC(=N)N)NC(=O)[C@H](Cc2cnc[nH]2)NC(=O)[C@H]([C@@H](C)O)NC(=O)[C@H](CCCNC(=N)N)NC(=O)[C@H](CO)NC3=O)NC(=O)[C@H](CCCCN)NC(=O)[C@H](CC(=O)O)NC(=O)[C@H](CC(N)=O)NC(=O)[C@H](CC(=O)O)NC(=O)[C@@H]2CCCN2C1=O [compound 810] (H-DCLGALRKCIPDNDKCCRPNLVCSRTHRWCKYVF-NH2; disulfide 2-17, 9-23, 16-30)
IC50 (hNav1.3): 0.2 µM
